Measured values published in patent US20160038588A1, “Myostatin Antagonism in Human Subjects” (AMGEN INC., priority 2013, published 2016).
Read-outs that look alike come from different tables or passages of the source.

Experiments:
[1] = human, in vivo, sc
Protocol: This was a multicenter, randomized, double-blind, placebo-controlled, ascending-multiple-dose study in men with prostate cancer receiving ADT. The trial was designed to evaluate the safety, tolerability, PK, and pharmacodynamics of AMG 745.
Subcutaneous doses of 0.3 mg/kg, 1.0 mg/kg, and 3.0 mg/kg, were each administered once weekly for 4 weeks, and were evaluated in sequential cohorts. Eight subjects, randomized in a 3:1 allocation ratio to AMG 745 or placebo, were enrolled in the 0.3 mg/kg dose cohort and in the 1.0 mg/kg dose cohort. To evaluate safety, tolerability, PK and the effect of 4 weekly doses on lean body mass, a total of thirty-eight subjects were enrolled in the 3.0 mg/kg dose cohort, randomized in a 1:1 allocation ratio to AMG 745 or placebo.
The following procedures were performed pre-study and periodically during the study for all cohorts: physical examination, vital signs, electrocardiogram, hematology, chemistry, urinalysis, anti-AMG 745 antibody screen, and blood sample draws for PK. For the 3 mg/kg cohort DXA and lower extremity CT scans were conducted predose and on study day 29 (end of study) and at the one month follow-up visit. All DXA scans were performed on a Hologic or GE Lunar scanner. The same scanner was to be used for all visits for an individual subject. All DXA scans were sent to a central reading facility for review and analysis.
The pharmacokinetic analyses included all treated subjects for whom the pharmacokinetic parameters could be estimated. Pharmacokinetic parameters were estimated using noncompartmental methods. Summary statistics by dose cohort were generated for each pharmacokinetic parameter. Graphs of serum AMG 745 concentration-time profiles for individual subjects and the means for each dose were prepared.

[2] = tested on: men with prostate cancer receiving ADT; assay: Clinical study: lower extremity strength (1-RM knee extension) and SPPB; format: in vivo, human; design: End of Study SPPB-Total Score, Mean / End of Study SPPB-Total Score, Median / Change from Baseline to End of Study SPPB-Total Score, Mean / Change from Baseline to End of Study SPPB-Total Score, Median / Follow-up SPPB-Total Score, Mean / Follow-up SPPB-Total Score, Median: scale not given here
Protocol: Lower extremity strength was assessed on the basis of maximum weight lifted for one repetition (1-RM) using a knee extension machine. This assessment was performed within 2 weeks prior to and/or up to Day 2, on Day 29, and at a 1 month follow-up visit.
Short Physical Performance Battery (SPPB) was conducted within 2 weeks prior to and/or up to Day 1, on Day 29, and at the 1 month follow-up visit. The SPPB included an assessment of standing balance, timed walk test, and five repetitions of chair stand.

[3] = 0.3 mg/kg SC 4-Week Dosing (N = 6)
[4] = 1.0 mg/kg SC 4-Week Dosing (N = 6)
[5] = 3.0 mg/kg SC 4-Week Dosing (N = 19)

## AMG 745: anti-myostatin peptibody: human IgG1 Fc fused at C-terminus via GGGGGAQ linker to peptide SEQ ID NO:311; chain SEQ ID NO:635
[1]; 0.3 mg/kg
  AR (accumulation ratio, AUC Week 4/AUC Week 1): 2.55
[1]; 3 mg/kg
  AR (accumulation ratio, AUC Week 4/AUC Week 1): 1.78
[2]; [3]
  Change from Baseline to End of Study SPPB-Total Score, Mean: 0.67
  Change from Baseline to End of Study SPPB-Total Score, Median: 1.00
  End of Study SPPB-Total Score, Mean: 11.00
  End of Study SPPB-Total Score, Median: 11.00
  Follow-up SPPB-Total Score, Mean: 11.00
  Follow-up SPPB-Total Score, Median: 11.00
[2]; [4]
  Change from Baseline to End of Study SPPB-Total Score, Mean: 1.50
  Change from Baseline to End of Study SPPB-Total Score, Median: 1.50
  End of Study SPPB-Total Score, Mean: 10.33
  End of Study SPPB-Total Score, Median: 10.00
  Follow-up SPPB-Total Score, Mean: 9.50
  Follow-up SPPB-Total Score, Median: 9.00
[2]; [5]
  Change from Baseline to End of Study SPPB-Total Score, Mean: 0.37
  Change from Baseline to End of Study SPPB-Total Score, Median: 0.00
  End of Study SPPB-Total Score, Mean: 10.53
  End of Study SPPB-Total Score, Median: 11.00
  Follow-up SPPB-Total Score, Mean: 10.68
  Follow-up SPPB-Total Score, Median: 11.00
[2]; All AMG 745 Subjects (N = 31)
  Change from Baseline to End of Study SPPB-Total Score, Mean: 0.65
  Change from Baseline to End of Study SPPB-Total Score, Median: 1.00
  End of Study SPPB-Total Score, Mean: 10.58
  End of Study SPPB-Total Score, Median: 11.00
  Follow-up SPPB-Total Score, Mean: 10.52
  Follow-up SPPB-Total Score, Median: 11.00
[2]; four doses, no statistical analyses
  SPPB or 1-RM knee extension, changes from baseline: effects were not apparent
